Target: T1, mAChR M1 (Homo sapiens, UniProt P11229)
T1 construct: expressed in transfected cells; host or cells: CHO-K1
T1 sequence (P11229 1-460): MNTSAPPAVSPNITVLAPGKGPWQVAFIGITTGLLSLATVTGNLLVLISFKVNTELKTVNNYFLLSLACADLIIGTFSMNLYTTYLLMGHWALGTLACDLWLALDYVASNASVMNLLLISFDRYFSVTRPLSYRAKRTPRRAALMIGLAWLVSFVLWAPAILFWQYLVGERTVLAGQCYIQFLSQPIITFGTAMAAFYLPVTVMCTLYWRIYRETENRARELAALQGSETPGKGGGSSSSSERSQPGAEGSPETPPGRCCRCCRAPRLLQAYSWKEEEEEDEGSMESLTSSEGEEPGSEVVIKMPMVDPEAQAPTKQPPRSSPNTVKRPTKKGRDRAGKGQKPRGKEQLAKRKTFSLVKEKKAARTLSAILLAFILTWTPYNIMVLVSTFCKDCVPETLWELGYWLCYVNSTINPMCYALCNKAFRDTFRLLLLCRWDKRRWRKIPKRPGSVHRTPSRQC
Experiment: mAChR M1 cell-based functional assay (calcium mobilization, potentiation of EC20 acetylcholine response in CHO-K1 cells)
Details: for Emax: CHO-K1, maximal response of curve fit or response at 30 μM test compound, as % of response to an about EC80 ACh concentration, read-out: Emax (% ACh maximum at 30 μM); for EC50: positive allosteric modulation of EC20 acetylcholine response, >10,000 estimated where no plateau in the curve
Text: Chinese hamster ovary (CHO-K1) cells stably expressing rat (r)M1 were purchased from the American Type Culture Collection and cultured according to their indicated protocol. CHO cells stably expressing human (h)M2, hM3, and hM5 were described previously (Levey, A. I., et al., J. Neurosci. 1991, 11, 3218-3226.); hM1 and hM4 cDNAs were purchased from Missouri S&T cDNA Resource; rM4 cDNA was provided by T. I. Bonner (National Institutes of Health, Bethesda, Md.). rM2 and rM3 were cloned from a rat brain cDNA library and sequence verified. hM1, rM2, rM3, hM4, and rM4 cDNAs were used to stably transfect CHO-K1 cells purchased from the American Type Culture Collection using Lipofectamine-2000. To make stable rM2, hM2, hM4, and rM4 cell lines for use in calcium mobilization assays, these cells also were stably transfected with a chimeric G-protein (Gqi5) (provided by B. R. Conklin, University of California, San Francisco) using Lipofectamine 2000. rM1, hM1, rM3, hM3, rM5, and hM5 cells were grown in Ham's F-12 medium containing 10% heat-inactivated fetal bovine serum (FBS), 20 mM HEPES, and 50 μg/mL G418 sulfate. rM2-Gqi5, hM2Gqi5, and hM4Gqi5 cells were grown in the same medium also containing 500 μg/mL Hygromycin B. Stable rM4Gqi5 cells were grown in DMEM containing 10% heat-inactivated FBS, 20 mM HEPES, 400 μg/mL G418 sulfate, and 500 μg/mL Hygromycin B.
For high throughput measurement of agonist-evoked increases in intracellular calcium, CHO-K1 cells stably expressing muscarinic receptors were plated in growth medium lacking G418 and hygromycin at 15,000 cells/20 μL/well in Greiner 384-well black-walled, tissue culture (TC)-treated, clear-bottom plates (VWR). Cells were incubated overnight at 37° C. and 5% CO2. The next day, cells were washed using an ELX 405 (BioTek) with four washes (80 μL) of assay buffer then […], 20 μL of Fluo-4/acetoxymethyl ester (Invitrogen, Carlsbad, Calif.) prepared as a 2.3 mM stock in DMSO and mixed in a 1:1 ratio with 10% (w/v) Pluronic F-127 and diluted in assay buffer was added to the wells and the cell plates were incubated for […] at 37° C. and 5% CO2. Dye was removed by washing with the ELX 405 (four 80 μL washes of assay buffer) then aspirated to 20 μL. Compound master plates were formatted in an 11 point CRC format (1:3 dilutions) in 100% DMSO with a starting concentration of 10 mM using the BRAVO liquid handler (Agilent). Test compound CRCs were then transferred to daughter plates ([…]) using the Echo acoustic plate reformatter (Labcyte, Sunnyvale, Calif.) and then diluted into assay buffer (40 μL) to a 2× stock using a Thermo Fisher Combi (Thermo Fisher Scientific, Waltham, Mass.).
Calcium flux was measured using the Functional Drug Screening System (FDSS) 6000 (Hamamatsu Corporation, Tokyo, Japan) as an increase in the fluorescent static ratio. Compounds were applied to cells (20 μL, 2×) using the automated system of the FDSS 6000 at 4 s into the 300 s protocol and the data were collected at 1 Hz. At 144 s into the 300 s protocol, 10 μL of an EC20 concentration of the muscarinic receptor agonist acetylcholine was added (5×), followed by the addition of 12 μL an EC80 concentration of acetylcholine at the 230 s time point (5×). Agonist activity was analyzed as a concentration-dependent increase in calcium mobilization upon compound addition. Positive allosteric modulator activity was analyzed as a concentration-dependent increase in the EC20 acetylcholine response. Antagonist activity was analyzed as a concentration-dependent decrease in the EC80 acetylcholine response. Concentration-response curves were generated using a four-parameter logistical equation in XLFit curve fitting software (IDBS, Bridgewater, N.J.) for Excel (Microsoft, Redmond, Wash.) or Prism (GraphPad Software, Inc., San Diego, Calif.).
The calcium mobilization assay was also used to determine “efficacy”. […]

SMILES | Emax [%] | EC50 [µM]
COc1cc2ccccc2n(Cc2ccc(-c3cnn(C)c3)cc2F)c1=O [Compound B1, 1-(2-fluoro-4-(1-methyl-1H-pyrazol-4-yl)benzyl)-3-methoxyquinolin-2(1H)-one] | 31 | 2.4
Cn1cc(-c2ccc(Cn3cc(S(=O)(=O)CCNC(=O)c4ccno4)c4c(F)cc(F)cc43)c(F)c2)cn1 [Compound B2] | 27 | 2.8
Cn1cc(-c2ccc(CN3C(=O)OCc4ccccc43)c(F)c2)cn1 [Compound B3, 1-(2-fluoro-4-(1-methyl-1H-pyrazol-4-yl)benzyl)-1H-benzo[d][1,3]oxazin-2(4H)-one] | 61 | 3.1
Cn1cc(-c2ccc(Cn3cc(S(=O)(=O)CCNC(=O)c4cnccn4)c4c(F)cc(F)cc43)c(F)c2)cn1 [Compound B4, N-(2-((4,6-difluoro-1-(2-fluoro-4-(1-methyl-1H-pyrazol-4-yl)benzyl)-1H-indol-3-yl)sulfonyl)ethyl)pyrazine-2-carboxamide] | 52 | 3.4
Cn1cc(-c2ccc(CN3Cc4ccccc4C3)c(F)c2)cn1 [Compound B5] | 38 | 3.5
Cn1cc(-c2ccc(Cn3c(=O)ccc4ccccc43)c(F)c2)cn1 [Compound B6] | 45 | 3.6
Cn1cc(-c2ccc(Cn3cc(S(C)(=O)=O)c4ccccc43)c(F)c2)cn1 [Compound B7] | 64 | 3.9
Cc1cc(NC(=O)c2cn(Cc3ccc(-c4cnn(C)c4)cc3F)c3ccccc23)no1 [Compound B8] | 43 | 5
Cn1cc(-c2ccc(Cn3cc(C(=O)Nc4cccnc4)c4ccccc43)c(F)c2)cn1 [Compound B9, 1-(2-fluoro-4-(1-methyl-1H-pyrazol-4-yl)benzyl)-N-(pyridin-3-yl)-1H-indole-3-carboxamide] | 50 | 5.4
Cn1cc(-c2ccc(Cn3cc(S(=O)(=O)CCNC(=O)c4cccnn4)c4c(F)cc(F)cc43)c(F)c2)cn1 [Compound B10] | 36 | 5.6
Cn1cc(-c2ccc(Cn3cc(S(=O)(=O)CCNC(=O)c4ccnnc4)c4c(F)cc(F)cc43)c(F)c2)cn1 [Compound B11] | 45 | 7.6
Cn1cc(-c2ccc(Cn3cc(S(=O)(=O)CCNC(=O)c4ccn[nH]4)c4c(F)cc(F)cc43)c(F)c2)cn1 [Compound B12] | 31 | 8.1
Cn1cc(-c2ccc(Cn3nc4ccccn4c3=O)c(F)c2)cn1 [Compound B13] | 29 | 9.4
Cn1cc(-c2ccc(Cn3c(=O)sc4ccccc43)c(F)c2)cn1 [Compound B14] | 45 | > 10
Cn1cc(-c2ccc(CNc3ccccc3S(C)(=O)=O)c(F)c2)cn1 [Compound B15] | 34 | > 10
Cn1cc(-c2ccc(CN3C(=O)CSc4ccccc43)c(F)c2)cn1 [Compound B16, 4-(2-fluoro-4-(1-methyl-1H-pyrazol-4-yl)benzyl)-2H-benzo[b][1,4]thiazin-3(4H)-one] | 32 | > 10

SMILES | Emax [%] | EC50 [µM]
Cn1cc(-c2ccc(CNc3ccccc3[S+](C)[O-])c(F)c2)cn1 (stereo not shown) [Compound B17] | 39 | > 10
Cn1cc(-c2ccc(CN3CC[S+]([O-])c4ccccc43)c(F)c2)cn1 (stereo not shown) [Compound B18] | 31 | > 10
Cn1cc(-c2ccc(CN3C(=O)NCc4ccccc43)c(F)c2)cn1 [Compound B19] | 46 | > 10
Cn1cc(-c2ccc(CN3C(=O)C[S+]([O-])c4ccccc43)c(F)c2)cn1 (stereo not shown) [Compound B20, 4-(2-fluoro-4-(1-methyl-1H-pyrazol-4-yl)benzyl)-2H-benzo[b][1,4]thiazin-3(4H)-one 1-oxide] | 41 | > 10
Cn1cc(-c2ccc(CN3C(=O)CS(=O)(=O)c4ccccc43)c(F)c2)cn1 [Compound B21, 4-(2-fluoro-4-(1-methyl-1H-pyrazol-4-yl)benzyl)-2H-benzo[b][1,4]thiazin-3(4H)-one 1,1-dioxide] | 36 | > 10
Cn1cc(-c2ccc(CN3C(=O)CCc4ccccc43)c(F)c2)cn1 [Compound B22] | 44 | > 10
Cn1cc(-c2ccc(CN3C(=O)COc4ccccc43)c(F)c2)cn1 [Compound B23] | 44 | > 10
Cn1cc(-c2ccc(CN3c4ccccc4CS3(=O)=O)c(F)c2)cn1 [Compound B24, 1-(2-fluoro-4-(1-methyl-1H-pyrazol-4-yl)benzyl)-1,3-dihydrobenzo[c]isothiazole 2,2-dioxide] | 39 | > 10
Cn1cc(-c2ccc(CN3CC(C(=O)O)c4ccccc43)c(F)c2)cn1 (stereo not shown) [Compound B25] | 52 | > 10
Cn1cc(-c2ccc(CN3Cc4ccccc4C3C(=O)O)c(F)c2)cn1 (stereo not shown) [Compound B26] | 61 | > 10
Cn1cc(-c2ccc(Cn3cc(C(=O)O)c4ccccc43)c(F)c2)cn1 [Compound B27] | 48 | > 10
Cn1cc(-c2ccc(Cn3cc(C(=O)NCCc4ccccn4)c4ccccc43)c(F)c2)cn1 [Compound B28] | 35 | > 10
Cn1cc(-c2ccc(Cn3cc(S(=O)(=O)CCNC(=O)c4ccccn4)c4c(F)cc(F)cc43)c(F)c2)cn1 [Compound B29] | 34 | > 10
Cn1cc(-c2ccc(Cn3cc(S(=O)(=O)CCNC(=O)c4cccc(F)c4)c4c(F)cc(F)cc43)c(F)c2)cn1 [Compound B30] | 35 | > 10
Cn1cc(-c2ccc(Cn3cc(S(=O)(=O)CCNC(=O)c4ccncc4)c4c(F)cc(F)cc43)c(F)c2)cn1 [Compound B31] | 30 | > 10
Cn1cc(-c2ccc(Cn3cc(S(=O)(=O)CCNC(=O)c4cocn4)c4c(F)cc(F)cc43)c(F)c2)cn1 [Compound B32] | 57 | > 10

— patent US9012445B2, “Substituted 4-(1H-pyrazol-4-yl)benzyl analogues as positive allosteric modulators of mAChR M1 receptors” (Vanderbilt University, priority 2012, dated 2015)
